pIC50: −log10 of the molar value. Read-outs that look alike come from different tables or passages of the source.
Key:
[1] = molecular target: T1, GMPPNP-bound KRAS G12C protein and cRAF RAS-binding domain (cRAF-RBD) (Homo sapiens, UniProt P01116, G12C); test: Inhibitory activity on interaction between KRAS G12C and cRAF (Alpha technology); format: biochemical; settings: GMPPNP-bound KRAS G12C incubated with compound at 25° C. for 1 hour, then cRAF-RBD, Alpha signal; read-out: IC50
T1 construct: made in house; host or cells: E. coli
Summary of the method: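 GMPPNP-loaded His-KRAS G12C (aa 1-169) preincubated 1 h at 25 °C with compound (pH 7.5 Tris, 1 mM MgCl2, TCEP, Tween 20), then cRAF-RBD (aa 50-132) and Alpha reagents added for 1.5 h at RT. Inhibition scaled between DMSO (0%) and GDP-bound KRAS (100%); IC50 by curve fitting.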

[2] = molecular target: T2, activated KRAS in NCI-H358 (Homo sapiens, UniProt P01116, G12C); test: Amount of activated KRAS on KRAS-G12C mutant cell line NCI-H358 (Ras GTPase Chemi ELISA); format: cell-based; settings: for pIC50: 1 hour with compound
T2 construct: host or cells: NCI-H358
Experimental: NCI-H358 [H358, H358] (ATCC® CRL5807™), which is a KRAS-G12C mutant human lung cancer cell line, and MIA PaCa-2 (ATCC® CRL-1420™), which is a KRAS-G12C mutant human pancreas cancer cell line, were suspended in a 10% fetal bovine serum-containing RPMI1640 medium (manufactured by Thermo Fischer SCIENTIFIC), respectively. The cell suspension was seeded into a cell culture plate and cultured in an incubator containing 5% CO2 gas at 37° C. for 1 day. The lyophilized recombinant human EGF protein (R&D systems, Cat #: 236-EG-200) was dissolved in PBS to make 0.5 mg/ml solution. […] Then, the compounds obtained in the “Preparation of Compounds” section were used as test compounds and were dissolved in DMSO, and each test compound was diluted with DMSO to give a concentration 200 times the final concentration. The solution of the test compound in DMSO was diluted with the medium used for suspending cells and added to each well of the cell-culture plate to give a DMSO final concentration of 0.5%, followed by culture in an incubator containing 5% CO2 gas at 37° C. for another 1 hour. The amount of activated KRAS after 1 hour culture in the presence of the compound was measured using Ras GTPase Chemi ELISA Kit (manufactured by Active Motif). The ratio of KRAS activity was calculated from the following equation, and the concentration of the test compound at which activity was suppressed to 50% (IC50 (μM)) was determined. […] The Ratio of KRAS activity to control (%)=(T−BG)/(C−BG)×100 • T: the emission intensity in a well into which a test compound was added. • C: the emission intensity in a well into which a test compound was not added. • BG: the emission intensity in a well into which neither a test compound nor a cell suspension was added.

[3] = molecular target: T3, activated KRAS in MIA PaCa-2 (Homo sapiens, UniProt P01116, G12C); test: Amount of activated KRAS on KRAS-G12C mutant cell line MIA PaCa-2 (Ras GTPase Chemi ELISA); format: cell-based; settings: for pIC50: 1 hour with compound
T3 construct: host or cells: MIA PaCa-2
Experimental: NCI-H358 [H358, H358] (ATCC® CRL5807™), which is a KRAS-G12C mutant human lung cancer cell line, and MIA PaCa-2 (ATCC® CRL-1420™), which is a KRAS-G12C mutant human pancreas cancer cell line, were suspended in a 10% fetal bovine serum-containing RPMI1640 medium (manufactured by Thermo Fischer SCIENTIFIC), respectively. The cell suspension was seeded into a cell culture plate and cultured in an incubator containing 5% CO2 gas at 37° C. for 1 day. The lyophilized recombinant human EGF protein (R&D systems, Cat #: 236-EG-200) was dissolved in PBS to make 0.5 mg/ml solution. The EGF solution in PBS was diluted by 0.4% with the medium used for suspending cells and added to each cell-culture plate to give an EGF final concentration of 100 ng/ml, followed by leaving to stand at ambient temperature for 5 minutes. Then, the compounds obtained in the “Preparation of Compounds” section were used as test compounds and were dissolved in DMSO, and each test compound was diluted with DMSO to give a concentration 200 times the final concentration. The solution of the test compound in DMSO was diluted with the medium used for suspending cells and added to each well of the cell-culture plate to give a DMSO final concentration of 0.5%, followed by culture in an incubator containing 5% CO2 gas at 37° C. for another 1 hour. The amount of activated KRAS after 1 hour culture in the presence of the compound was measured using Ras GTPase Chemi ELISA Kit (manufactured by Active Motif). The ratio of KRAS activity was calculated from the following equation, and the concentration of the test compound at which activity was suppressed to 50% (IC50 (μM)) was determined. […] The Ratio of KRAS activity to control (%)=(T−BG)/(C−BG)×100 • T: the emission intensity in a well into which a test compound was added. • C: the emission intensity in a well into which a test compound was not added. • BG: the emission intensity in a well into which neither a test compound nor a cell suspension was added.

[4] = NCI-H358, with EGF 100 ng/ml, read-out: IC50 NCI-H358 with EGF
[5] = NCI-H358, without EGF, read-out: IC50 NCI-H358 without EGF
[6] = MIA PaCa-2, with EGF 100 ng/ml, read-out: IC50 MIA PaCa-2 with EGF
[7] = MIA PaCa-2, without EGF, read-out: IC50 MIA PaCa-2 without EGF

T1 sequence (P01116 with tags, fused parts or gaps isoform P01116-2 G12C): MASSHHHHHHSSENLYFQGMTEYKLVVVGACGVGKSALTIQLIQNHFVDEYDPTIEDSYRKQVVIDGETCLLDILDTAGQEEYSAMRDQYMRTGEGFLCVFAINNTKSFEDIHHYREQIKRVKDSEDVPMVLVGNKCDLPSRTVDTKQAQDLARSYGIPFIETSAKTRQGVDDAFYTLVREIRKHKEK
T3 sequence (P01116 1-188 isoform P01116-2 G12C): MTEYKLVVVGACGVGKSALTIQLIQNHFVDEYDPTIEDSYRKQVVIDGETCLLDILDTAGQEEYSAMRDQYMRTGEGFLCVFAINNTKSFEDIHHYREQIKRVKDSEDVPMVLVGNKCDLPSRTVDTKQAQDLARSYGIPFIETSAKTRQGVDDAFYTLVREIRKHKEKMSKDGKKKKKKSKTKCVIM
T2 sequence (P01116 1-188 isoform P01116-2 G12C): as above

Row | SMILES | pIC50 [1] | KRAS inhibition activity under EGF treatment ([2]; NCI-H358, EGF treatment) | pIC50 [2, 4] | pIC50 [2, 5] | KRAS inhibition activity under EGF treatment ([3]; MIA PaCa-2, EGF treatment) | pIC50 [3, 6] | pIC50 [3, 7]
1 | C=CC(=O)N1CCN(c2ncnc3c(F)c(-c4c(O)cccc4F)c(Cl)cc23)CC1 [ARS-1620, reference compound] | < 4.17 | attenuated by EGF treatment | 5.27 | 5.85 | attenuated by EGF treatment | 5.38 | 6.19
2 | CCc1nc2cc(-c3cccc(NC(=O)c4ccc(NC(=O)/C=C/CN[C@H]5CC[C@H](OC)CC5)c(C#N)c4)c3)c(C(F)(F)F)cc2n1C [Example 1, 3-cyano-N-(3-(2-ethyl-1-methyl-6-(trifluoromethyl)-1H-benzo[d]imidazol-5-yl)phenyl)-4-((E)-4-(((1r, 4r)-4-methoxycyclohexyl)amino)but-2-enamido)benzamide] | 6.74 |  | 6.07 | 6.12 |  | 6.00 | 6.11
3 | CO[C@H]1CC[C@H](NC/C=C/C(=O)Nc2ccc(C(=O)c3ccc4c(-c5cc6ncn(C)c6cc5C)cccn34)cc2C#N)CC1 [Example 4, (E)-N-(2-cyano-4-(8-(1,6-dimethyl-1H-benzo[d]imidazol-5-yl)indolizine-3-carbonyl)phenyl)-4-(((1r,4r)-4-methoxycyclohexyl)amino)but-2-enamide] | 7.64 |  | 6.33 | 6.41 |  | 6.36 | 6.52

From patent US12673041B2, “4-aminobut-2-enamide derivatives and salt thereof” (TAIHO PHARMACEUTICAL CO., LTD., priority 2019, dated 2026)
